# Data reported in PubChem BioAssay AID256 (DTP/NCI, 2004).
# Several values for one entry are separate records, joined by “and”; a condition that tells them apart may be missing. Equal entries are not always repeated. Inconclusive results and toxic doses are left out.
# System: CD2F1 mice, L1210 leukemia ip, survival T/C
# Experiment: NCI In Vivo Anticancer Drug Screen. Data for tumor model L1210 Leukemia (intraperitoneal) in CD2F1 (CDF1) mice
# Settings: higher = longer survival
# How it was run: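 Antitumor effect is scored in animals hosting a serially transplanted tumor. Values compare compound-dosed animals against vehicle-only controls as a simple quotient.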
# [1] = endpoint: mean survival time, dose: 400.0 mg/kg/injection, schedule: Q01DX009 (ip), vehicle: saline
# [2] = endpoint: mean survival time, dose: 12.5 mg/kg/injection, schedule: Q01DX009 (ip), vehicle: saline
# [3] = endpoint: mean survival time, dose: 25.0 mg/kg/injection, schedule: Q01DX009 (ip), vehicle: saline
# [4] = endpoint: mean survival time, dose: 100.0 mg/kg/injection, schedule: Q04DX003 (ip), vehicle: saline
# [5] = endpoint: mean survival time, dose: 200.0 mg/kg/injection, schedule: Q04DX003 (ip), vehicle: saline
# [6] = endpoint: mean survival time, dose: 400.0 mg/kg/injection, schedule: Q04DX003 (ip), vehicle: saline
# [7] = endpoint: mean survival time, dose: 100.0 mg/kg/injection, schedule: Q04DX003 (ip), vehicle: saline with Tween-80
# [8] = endpoint: mean survival time, dose: 200.0 mg/kg/injection, schedule: Q04DX003 (ip), vehicle: saline with Tween-80
# [9] = endpoint: mean survival time, dose: 400.0 mg/kg/injection, schedule: Q04DX003 (ip), vehicle: saline with Tween-80
# [10] = endpoint: mean survival time, dose: 100.0 mg/kg/injection, schedule: Q01DX009 (ip), vehicle: saline with Tween-80
# [11] = endpoint: mean survival time, dose: 200.0 mg/kg/injection, schedule: Q01DX009 (ip), vehicle: saline with Tween-80
# [12] = endpoint: mean survival time, dose: 400.0 mg/kg/injection, schedule: Q01DX009 (ip), vehicle: saline with Tween-80
smiles,measurement,setting,value
CC(=O)OCC1OC(n2ncc(=O)[nH]c2=O)C(OC(C)=O)C1OC(C)=O (stereo not given),T/C,"endpoint: mean survival time, dose: 12.5 mg/kg/injection, schedule: Q03HX024 (ip), vehicle: saline",112 % of control
same,T/C,"endpoint: mean survival time, dose: 25.0 mg/kg/injection, schedule: Q03HX024 (ip), vehicle: saline",116 % of control
same,T/C,"endpoint: mean survival time, dose: 50.0 mg/kg/injection, schedule: Q03HX024 (ip), vehicle: saline",106 % of control
same,T/C,"endpoint: mean survival time, dose: 100.0 mg/kg/injection, schedule: Q01DX001 (ip), vehicle: saline",106 % of control
same,T/C,"endpoint: mean survival time, dose: 200.0 mg/kg/injection, schedule: Q01DX001 (ip), vehicle: saline",103 % of control
same,T/C,"endpoint: mean survival time, dose: 400.0 mg/kg/injection, schedule: Q01DX001 (ip), vehicle: saline",106 % of control
same,T/C,[1],108 % of control
same,T/C,"endpoint: mean survival time, dose: 800.0 mg/kg/injection, schedule: Q01DX001 (ip), vehicle: saline",117 % of control
same,T/C,"endpoint: mean survival time, dose: 800.0 mg/kg/injection, schedule: Q01DX009 (ip), vehicle: saline",93 % of control
N=[N+]=CC(=O)OCC(N)C(=O)O (stereo not given),T/C,"endpoint: mean survival time, dose: 1.0 mg/kg/injection, schedule: Q03HX016 (ip), vehicle: saline",168 % of control
same,T/C,"endpoint: mean survival time, dose: 2.0 mg/kg/injection, schedule: Q03HX016 (ip), vehicle: saline",168 % of control
same,T/C,"endpoint: mean survival time, dose: 2.0 mg/kg/injection, schedule: Q03HX024 (ip), vehicle: saline",153 % of control and 163 % of control
same,T/C,"endpoint: mean survival time, dose: 4.0 mg/kg/injection, schedule: Q03HX016 (ip), vehicle: saline",182 % of control
same,T/C,"endpoint: mean survival time, dose: 4.0 mg/kg/injection, schedule: Q03HX024 (ip), vehicle: saline",171 % of control and 174 % of control
same,T/C,"endpoint: mean survival time, dose: 8.0 mg/kg/injection, schedule: Q03HX016 (ip), vehicle: saline",115 % of control
same,T/C,"endpoint: mean survival time, dose: 8.0 mg/kg/injection, schedule: Q03HX024 (ip), vehicle: saline",113 % of control and 115 % of control
same,T/C,[2],167 % of control
same,T/C,"endpoint: mean survival time, dose: 25.0 mg/kg/injection, schedule: Q01DX007 (ip), vehicle: saline",122 % of control
same,T/C,[3],100 % of control
same,T/C,"endpoint: mean survival time, dose: 50.0 mg/kg/injection, schedule: Q01DX007 (ip), vehicle: saline",96 % of control
same,T/C,"endpoint: mean survival time, dose: 50.0 mg/kg/injection, schedule: Q03DX003 (ip), vehicle: saline",151 % of control
CN(C)N=Nc1ccc(C(=O)N/N=C/c2ccc([N+](=O)[O-])cc2)cc1,T/C,[4],97 % of control
same,T/C,[5],93 % of control
same,T/C,[6],93 % of control
CC(CCCC1SCC2NC(=O)NC21)C(=O)O (stereo not given),T/C,[7],98 % of control
same,T/C,[8],98 % of control
same,T/C,[9],98 % of control
Cc1ccccc1C(C)C,T/C,[7],101 % of control
same,T/C,[8],97 % of control
same,T/C,[9],101 % of control
C=CCOCC(O)CN(CCC)CCC (stereo not given),T/C,[2],103 % of control
same,T/C,[3],95 % of control
same,T/C,"endpoint: mean survival time, dose: 25.0 mg/kg/injection, schedule: Q04DX003 (ip), vehicle: saline",93 % of control
same,T/C,"endpoint: mean survival time, dose: 50.0 mg/kg/injection, schedule: Q01DX009 (ip), vehicle: saline",103 % of control
same,T/C,"endpoint: mean survival time, dose: 50.0 mg/kg/injection, schedule: Q04DX003 (ip), vehicle: saline",89 % of control
same,T/C,[7],97 % of control
Cc1ccc(NS(=O)(=O)c2cccc([N+](=O)[O-])c2)cc1Cl,T/C,[7],92 % of control
same,T/C,[8],97 % of control
same,T/C,[9],92 % of control
Cc1cc(N)nc2ccccc12,T/C,"endpoint: mean survival time, dose: 3.12 mg/kg/injection, schedule: Q04DX002 (ip), vehicle: saline with Tween-80",101 % of control
same,T/C,"endpoint: mean survival time, dose: 6.25 mg/kg/injection, schedule: Q04DX002 (ip), vehicle: saline with Tween-80",105 % of control
same,T/C,"endpoint: mean survival time, dose: 12.5 mg/kg/injection, schedule: Q04DX002 (ip), vehicle: saline with Tween-80",94 % of control and 101 % of control
CCOC(=O)c1cnc[nH]1,T/C,"endpoint: mean survival time, dose: 100.0 mg/kg/injection, schedule: Q04DX002 (ip), vehicle: saline with Tween-80",103 % of control
same,T/C,"endpoint: mean survival time, dose: 200.0 mg/kg/injection, schedule: Q04DX002 (ip), vehicle: saline with Tween-80",95 % of control
same,T/C,"endpoint: mean survival time, dose: 400.0 mg/kg/injection, schedule: Q04DX002 (ip), vehicle: saline with Tween-80",103 % of control
S=C1SCCS1,T/C,"endpoint: mean survival time, dose: 100.0 mg/kg/injection, schedule: Q04DX003 (ip), vehicle: saline sonified",98 % of control
same,T/C,"endpoint: mean survival time, dose: 200.0 mg/kg/injection, schedule: Q04DX003 (ip), vehicle: saline sonified",107 % of control
same,T/C,"endpoint: mean survival time, dose: 400.0 mg/kg/injection, schedule: Q04DX003 (ip), vehicle: saline sonified",89 % of control
CCO/C=C1\SC(=S)N(c2ccccc2OC)C1=O,T/C,[7],107 % of control
same,T/C,[8],102 % of control
same,T/C,[9],107 % of control
CC(C)NC(=O)CCCCN(C(=O)OCc1ccccc1)N(C)C(=O)OCc1ccccc1,T/C,"endpoint: mean survival time, dose: 50.0 mg/kg/injection, schedule: Q04DX003 (ip), vehicle: Klucel (hydroxypropylcellulose) (HPC)",100 % of control
same,T/C,"endpoint: mean survival time, dose: 100.0 mg/kg/injection, schedule: Q04DX003 (ip), vehicle: Klucel (hydroxypropylcellulose) (HPC)",91 % of control
same,T/C,"endpoint: mean survival time, dose: 200.0 mg/kg/injection, schedule: Q04DX003 (ip), vehicle: Klucel (hydroxypropylcellulose) (HPC)",106 % of control
same,T/C,"endpoint: mean survival time, dose: 400.0 mg/kg/injection, schedule: Q04DX003 (ip), vehicle: Klucel (hydroxypropylcellulose) (HPC)",95 % of control
O=C(NC(CO)C(O)c1ccc(N=Nc2cccc3ccccc23)cc1)C(Cl)Cl (stereo not given),T/C,[10],100 % of control
same,T/C,[11],101 % of control
same,T/C,[12],101 % of control
C/C(=N/O)[c-]1[c-][c-][c-][c-]1.[Fe].[c-]1[c-][c-][cH-][c-]1,T/C,"endpoint: mean survival time, dose: 50.0 mg/kg/injection, schedule: Q01DX009 (ip), vehicle: saline with Tween-80",97 % of control
same,T/C,"endpoint: mean survival time, dose: 100.0 mg/kg/injection, schedule: Q01DX001 (ip), vehicle: saline with Tween-80",95 % of control
same,T/C,[10],94 % of control
same,T/C,"endpoint: mean survival time, dose: 200.0 mg/kg/injection, schedule: Q01DX001 (ip), vehicle: saline with Tween-80",101 % of control
c1ccc(Cc2ccccn2)nc1,T/C,"endpoint: mean survival time, dose: 100.0 mg/kg/injection, schedule: Q01DX009 (ip), vehicle: saline",110 % of control
same,T/C,"endpoint: mean survival time, dose: 200.0 mg/kg/injection, schedule: Q01DX009 (ip), vehicle: saline",101 % of control
same,T/C,[1],90 % of control
CCCCCC(=O)O[C@]1(C(C)=O)CC[C@H]2[C@@H]3CCC4=CC(=O)CC[C@]4(C)[C@H]3CC[C@@]21C,T/C,"endpoint: median survival time, dose: 25.0 mg/kg/injection, schedule: Q01DX009 (ip), vehicle: saline with Tween-80",109 % of control
same,T/C,"endpoint: median survival time, dose: 50.0 mg/kg/injection, schedule: Q01DX009 (ip), vehicle: saline with Tween-80",96 % of control
same,T/C,"endpoint: median survival time, dose: 100.0 mg/kg/injection, schedule: Q01DX009 (ip), vehicle: saline with Tween-80",97 % of control
same,T/C,"endpoint: median survival time, dose: 200.0 mg/kg/injection, schedule: Q01DX009 (ip), vehicle: saline with Tween-80",95 % of control
same,T/C,"endpoint: median survival time, dose: 400.0 mg/kg/injection, schedule: Q01DX009 (ip), vehicle: saline with Tween-80",93 % of control
CC(=O)Nc1c([N+](=O)[O-])cc2c3c(cccc13)CC2,T/C,[10],102 % of control
same,T/C,[7],100 % of control
same,T/C,[11],97 % of control
same,T/C,[8],102 % of control
same,T/C,[12],97 % of control
same,T/C,[9],100 % of control
[N-]=[N+]=NC1CCOC(n2cnc3c(N)ncnc32)C1O (stereo not given),T/C,"endpoint: median survival time, dose: 25.0 mg/kg/injection, schedule: Q01DX005 (ip), vehicle: Klucel (hydroxypropylcellulose) (HPC)",102 % of control
same,T/C,"endpoint: median survival time, dose: 25.0 mg/kg/injection, schedule: Q01DX005 (ip), vehicle: Klucel + Tween-80",101 % of control
same,T/C,"endpoint: median survival time, dose: 50.0 mg/kg/injection, schedule: Q01DX005 (ip), vehicle: Klucel (hydroxypropylcellulose) (HPC)",100 % of control
same,T/C,"endpoint: median survival time, dose: 50.0 mg/kg/injection, schedule: Q01DX005 (ip), vehicle: Klucel + Tween-80",101 % of control
same,T/C,"endpoint: median survival time, dose: 100.0 mg/kg/injection, schedule: Q01DX005 (ip), vehicle: Klucel (hydroxypropylcellulose) (HPC)",108 % of control
same,T/C,"endpoint: median survival time, dose: 100.0 mg/kg/injection, schedule: Q01DX005 (ip), vehicle: Klucel + Tween-80",102 % of control
same,T/C,"endpoint: median survival time, dose: 200.0 mg/kg/injection, schedule: Q01DX005 (ip), vehicle: Klucel (hydroxypropylcellulose) (HPC)",102 % of control
same,T/C,"endpoint: median survival time, dose: 200.0 mg/kg/injection, schedule: Q01DX005 (ip), vehicle: Klucel + Tween-80",102 % of control
O=CC(O)C(Cl)C(Cl)C(O)CCl (stereo not given),T/C,[4],115 % of control
same,T/C,[5],100 % of control
same,T/C,[6],98 % of control
O=C1C=CC(=O)c2c(O)ccc(O)c21,T/C,"endpoint: mean survival time, dose: 1.0 mg/kg/injection, schedule: Q04DX003 (ip), vehicle: saline with Tween-80",91 % of control
same,T/C,"endpoint: mean survival time, dose: 2.0 mg/kg/injection, schedule: Q04DX003 (ip), vehicle: saline with Tween-80",104 % of control
same,T/C,"endpoint: mean survival time, dose: 4.0 mg/kg/injection, schedule: Q04DX003 (ip), vehicle: saline with Tween-80",104 % of control
